Reference: ChEMBL document CHEMBL3885881, “DrugMatrix”

Organism: Rattus norvegicus
Test: DrugMatrix - Regimen: Daily Repeat
Assay type: toxicity, organism-based, Sprague-Dawley
Set-up: regimen Daily Repeat, gender Male, age 6-8 weeks
Conditions: in vivo, po, route oral GAVAGE, […]; for ABSOLUTE BASOPHIL / ABSOLUTE EOSINOPHIL / ABSOLUTE LYMPHOCYTE / ABSOLUTE SEGMENTED NEUTROPHIL / BASOPHIL / EOSINOPHIL / ERYTHROCYTE COUNT / HEMOGLOBIN / LEUKOCYTE COUNT / LYMPHOCYTE / MEAN CORPUSCULAR HEMOGLOBIN / MEAN CORPUSCULAR HEMOGLOBIN CONCENTRATION / MEAN CORPUSCULAR VOLUME / MONOCYTE / NEUTROPHIL / NUCLEATED RED BLOOD CELLS / PLATELET COUNT: tissue Blood; for ALANINE AMINOTRANSFERASE / ALBUMIN / ALKALINE PHOSPHATASE / ASPARTATE AMINOTRANSFERASE / BLOOD UREA NITROGEN / CARBON DIOXIDE / CHLORIDE / CHOLESTEROL / CREATINE PHOSPHOKINASE / CREATININE / GLUCOSE / LACTATE DEHYDROGENASE / LIPASE / PHOSPHORUS / POTASSIUM / SODIUM / TOTAL BILIRUBIN / URIC ACID: tissue Plasma
[1] = 20 mg/kg, 72 h, dose level Low, time 3 day
[2] = 20 mg/kg, 120 h, dose level Low, time 5 day
[3] = 600 mg/kg, 72 h, dose level High, time 3 day
[4] = 600 mg/kg, 120 h, dose level High, time 5 day

CCCN(CCC)S(=O)(=O)c1ccc(C(=O)O)cc1 [PROBENECID]
ABSOLUTE BASOPHIL [1]: 0 CELLS/uL | ABSOLUTE EOSINOPHIL [1]: 143 CELLS/uL | ABSOLUTE LYMPHOCYTE [1]: 13997.67 CELLS/uL | ABSOLUTE SEGMENTED NEUTROPHIL [1]: 1155.67 CELLS/uL | BASOPHIL [1]: 0% | EOSINOPHIL [1]: 1% | ERYTHROCYTE COUNT [1]: 5.57 x10E6/uL | HEMOGLOBIN [1]: 13.7 G/DL | LEUKOCYTE COUNT [1]: 15.43 x10E3/uL | LYMPHOCYTE [1]: 90.33% | MEAN CORPUSCULAR HEMOGLOBIN [1]: 24.67 pg | MEAN CORPUSCULAR HEMOGLOBIN CONCENTRATION [1]: 39.3 G/DL | MEAN CORPUSCULAR VOLUME [1]: 62.8 fL | MONOCYTE [1]: 1% | NEUTROPHIL [1]: 7.67% | NUCLEATED RED BLOOD CELLS [1]: 0 /100WBC | PLATELET COUNT [1]: 1224.33 x10E3/uL | ALANINE AMINOTRANSFERASE [1]: 70 u/L | ALBUMIN [1]: 4 G/DL | ALKALINE PHOSPHATASE [1]: 531.67 u/L | ASPARTATE AMINOTRANSFERASE [1]: 87.67 u/L | BLOOD UREA NITROGEN [1]: 11 mg/dL | CARBON DIOXIDE [1]: 33.67 mmol/L | CHLORIDE [1]: 100.67 MEQ/L | CHOLESTEROL [1]: 81 mg/dL | CREATINE PHOSPHOKINASE [1]: 196.67 u/L | CREATININE [1]: 0.13 mg/dL | GLUCOSE [1]: 157.33 mg/dL | LACTATE DEHYDROGENASE [1]: 142.33 u/L | LIPASE [1]: 10.67 u/L | PHOSPHORUS [1]: 10.83 mg/dL | POTASSIUM [1]: 6.5 MEQ/L | SODIUM [1]: 141.87 MEQ/L | TOTAL BILIRUBIN [1]: 0.13 mg/dL | URIC ACID [1]: 1.4 mg/dL | ABSOLUTE BASOPHIL [2]: 0 CELLS/uL | ABSOLUTE EOSINOPHIL [2]: 118.67 CELLS/uL | ABSOLUTE LYMPHOCYTE [2]: 12848.33 CELLS/uL | ABSOLUTE SEGMENTED NEUTROPHIL [2]: 894.33 CELLS/uL | BASOPHIL [2]: 0% | EOSINOPHIL [2]: 0.67% | ERYTHROCYTE COUNT [2]: 5.43 x10E6/uL | HEMOGLOBIN [2]: 13.5 G/DL | LEUKOCYTE COUNT [2]: 14.13 x10E3/uL | LYMPHOCYTE [2]: 91% | MEAN CORPUSCULAR HEMOGLOBIN [2]: 25.03 pg | MEAN CORPUSCULAR HEMOGLOBIN CONCENTRATION [2]: 39.73 G/DL | MEAN CORPUSCULAR VOLUME [2]: 62.93 fL | MONOCYTE [2]: 2% | NEUTROPHIL [2]: 6.33% | NUCLEATED RED BLOOD CELLS [2]: 0 /100WBC | PLATELET COUNT [2]: 1072.33 x10E3/uL | ALANINE AMINOTRANSFERASE [2]: 70.67 u/L | ALBUMIN [2]: 3.97 G/DL | ALKALINE PHOSPHATASE [2]: 404.33 u/L | ASPARTATE AMINOTRANSFERASE [2]: 114.67 u/L | BLOOD UREA NITROGEN [2]: 13.67 mg/dL | CARBON DIOXIDE [2]: 29.67 mmol/L | CHLORIDE [2]: 102 MEQ/L | CHOLESTEROL [2]: 63.33 mg/dL | CREATINE PHOSPHOKINASE [2]: 910.33 u/L | CREATININE [2]: 0.19 mg/dL | GLUCOSE [2]: 178 mg/dL | LACTATE DEHYDROGENASE [2]: 364 u/L | LIPASE [2]: 10.33 u/L | PHOSPHORUS [2]: 11.13 mg/dL | POTASSIUM [2]: 6.49 MEQ/L | SODIUM [2]: 141.5 MEQ/L | TOTAL BILIRUBIN [2]: 0.23 mg/dL | URIC ACID [2]: 1.67 mg/dL | ABSOLUTE BASOPHIL [3]: 0 CELLS/uL | ABSOLUTE EOSINOPHIL [3]: 106 CELLS/uL | ABSOLUTE LYMPHOCYTE [3]: 14409.67 CELLS/uL | ABSOLUTE SEGMENTED NEUTROPHIL [3]: 2126 CELLS/uL | BASOPHIL [3]: 0% | EOSINOPHIL [3]: 0.67% | ERYTHROCYTE COUNT [3]: 5.2 x10E6/uL | HEMOGLOBIN [3]: 13.4 G/DL | LEUKOCYTE COUNT [3]: 16.7 x10E3/uL | LYMPHOCYTE [3]: 86.33% | MEAN CORPUSCULAR HEMOGLOBIN [3]: 25.73 pg | MEAN CORPUSCULAR HEMOGLOBIN CONCENTRATION [3]: 40.6 G/DL | MEAN CORPUSCULAR VOLUME [3]: 63.43 fL | MONOCYTE [3]: 0.33% | NEUTROPHIL [3]: 12.67% | NUCLEATED RED BLOOD CELLS [3]: 0.33 /100WBC | PLATELET COUNT [3]: 1182.33 x10E3/uL | ALANINE AMINOTRANSFERASE [3]: 83.67 u/L | ALBUMIN [3]: 3.93 G/DL | ALKALINE PHOSPHATASE [3]: 534.33 u/L | ASPARTATE AMINOTRANSFERASE [3]: 87 u/L | BLOOD UREA NITROGEN [3]: 11 mg/dL | CARBON DIOXIDE [3]: 27.67 mmol/L | CHLORIDE [3]: 99.67 MEQ/L | CHOLESTEROL [3]: 58 mg/dL | CREATINE PHOSPHOKINASE [3]: 599.67 u/L | CREATININE [3]: 0.18 mg/dL | GLUCOSE [3]: 155.67 mg/dL | LACTATE DEHYDROGENASE [3]: 259.33 u/L | LIPASE [3]: 10.33 u/L | PHOSPHORUS [3]: 10.97 mg/dL | POTASSIUM [3]: 6.4 MEQ/L | SODIUM [3]: 139.6 MEQ/L | TOTAL BILIRUBIN [3]: 0.27 mg/dL | URIC ACID [3]: 1.33 mg/dL | ABSOLUTE BASOPHIL [4]: 0 CELLS/uL | ABSOLUTE EOSINOPHIL [4]: 58.67 CELLS/uL | ABSOLUTE LYMPHOCYTE [4]: 15278 CELLS/uL | ABSOLUTE SEGMENTED NEUTROPHIL [4]: 1476.33 CELLS/uL | BASOPHIL [4]: 0% | EOSINOPHIL [4]: 0.33% | ERYTHROCYTE COUNT [4]: 6 x10E6/uL | HEMOGLOBIN [4]: 14.33 G/DL | LEUKOCYTE COUNT [4]: 16.87 x10E3/uL | LYMPHOCYTE [4]: 90.67% | MEAN CORPUSCULAR HEMOGLOBIN [4]: 23.93 pg | MEAN CORPUSCULAR HEMOGLOBIN CONCENTRATION [4]: 39.6 G/DL | MEAN CORPUSCULAR VOLUME [4]: 60.4 fL | MONOCYTE [4]: 0.33% | NEUTROPHIL [4]: 8.67% | NUCLEATED RED BLOOD CELLS [4]: 0 /100WBC | PLATELET COUNT [4]: 1128.33 x10E3/uL | ALANINE AMINOTRANSFERASE [4]: 55.67 u/L | ALBUMIN [4]: 4.37 G/DL | ALKALINE PHOSPHATASE [4]: 404.67 u/L | ASPARTATE AMINOTRANSFERASE [4]: 96.33 u/L | BLOOD UREA NITROGEN [4]: 20.33 mg/dL | CARBON DIOXIDE [4]: 31 mmol/L | CHLORIDE [4]: 101.67 MEQ/L | CHOLESTEROL [4]: 55.33 mg/dL | CREATINE PHOSPHOKINASE [4]: 902 u/L | CREATININE [4]: 0.25 mg/dL | GLUCOSE [4]: 169 mg/dL | LACTATE DEHYDROGENASE [4]: 213.67 u/L | LIPASE [4]: 10 u/L | PHOSPHORUS [4]: 10.3 mg/dL | POTASSIUM [4]: 5.85 MEQ/L | SODIUM [4]: 142.7 MEQ/L | TOTAL BILIRUBIN [4]: 0.27 mg/dL | URIC ACID [4]: 1.8 mg/dL
